Measured values taken from ChEMBL document CHEMBL5584220, “Design, synthesis, and biological evaluation of aralkyl piperazine and piperidine derivatives targeting SSRI/5-HT1A/5-HT7” (Bioorg Med Chem, 2024).

How the values were obtained:
[1] = molecular target: hERG (KCNH2) (Homo sapiens, UniProt Q12809); test: in vitro; settings: HEK293 cells that express hERG
[2] = in vitro; settings: human, liver microsomes
[3] = in vitro; settings: mouse, liver microsomes
[4] = molecular target: Sodium-dependent serotonin transporter (Homo sapiens, UniProt P31645); assay type: cell-based, HEK293
Chain of Sodium-dependent serotonin transporter (P31645 whole entry): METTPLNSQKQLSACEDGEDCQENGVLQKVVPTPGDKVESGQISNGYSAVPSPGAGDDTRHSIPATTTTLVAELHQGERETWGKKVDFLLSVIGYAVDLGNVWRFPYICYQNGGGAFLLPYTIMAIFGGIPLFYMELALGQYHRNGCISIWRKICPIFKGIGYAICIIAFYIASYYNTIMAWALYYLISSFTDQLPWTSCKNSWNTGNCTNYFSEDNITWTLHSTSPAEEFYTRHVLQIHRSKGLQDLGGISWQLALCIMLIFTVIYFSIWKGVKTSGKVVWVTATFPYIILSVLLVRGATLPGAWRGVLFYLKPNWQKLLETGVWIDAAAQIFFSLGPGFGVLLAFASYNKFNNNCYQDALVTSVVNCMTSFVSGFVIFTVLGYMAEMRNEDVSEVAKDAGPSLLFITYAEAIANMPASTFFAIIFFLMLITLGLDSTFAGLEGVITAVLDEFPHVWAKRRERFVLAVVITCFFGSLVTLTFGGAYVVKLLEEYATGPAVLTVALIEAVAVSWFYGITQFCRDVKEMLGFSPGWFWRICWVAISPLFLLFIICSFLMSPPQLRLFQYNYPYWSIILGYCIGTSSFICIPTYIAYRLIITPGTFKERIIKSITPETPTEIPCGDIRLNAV

[5] = molecular target: Voltage-gated inwardly rectifying potassium channel KCNH2 (Homo sapiens, UniProt Q12809)
Chain of Voltage-gated inwardly rectifying potassium channel KCNH2 (Q12809 whole entry): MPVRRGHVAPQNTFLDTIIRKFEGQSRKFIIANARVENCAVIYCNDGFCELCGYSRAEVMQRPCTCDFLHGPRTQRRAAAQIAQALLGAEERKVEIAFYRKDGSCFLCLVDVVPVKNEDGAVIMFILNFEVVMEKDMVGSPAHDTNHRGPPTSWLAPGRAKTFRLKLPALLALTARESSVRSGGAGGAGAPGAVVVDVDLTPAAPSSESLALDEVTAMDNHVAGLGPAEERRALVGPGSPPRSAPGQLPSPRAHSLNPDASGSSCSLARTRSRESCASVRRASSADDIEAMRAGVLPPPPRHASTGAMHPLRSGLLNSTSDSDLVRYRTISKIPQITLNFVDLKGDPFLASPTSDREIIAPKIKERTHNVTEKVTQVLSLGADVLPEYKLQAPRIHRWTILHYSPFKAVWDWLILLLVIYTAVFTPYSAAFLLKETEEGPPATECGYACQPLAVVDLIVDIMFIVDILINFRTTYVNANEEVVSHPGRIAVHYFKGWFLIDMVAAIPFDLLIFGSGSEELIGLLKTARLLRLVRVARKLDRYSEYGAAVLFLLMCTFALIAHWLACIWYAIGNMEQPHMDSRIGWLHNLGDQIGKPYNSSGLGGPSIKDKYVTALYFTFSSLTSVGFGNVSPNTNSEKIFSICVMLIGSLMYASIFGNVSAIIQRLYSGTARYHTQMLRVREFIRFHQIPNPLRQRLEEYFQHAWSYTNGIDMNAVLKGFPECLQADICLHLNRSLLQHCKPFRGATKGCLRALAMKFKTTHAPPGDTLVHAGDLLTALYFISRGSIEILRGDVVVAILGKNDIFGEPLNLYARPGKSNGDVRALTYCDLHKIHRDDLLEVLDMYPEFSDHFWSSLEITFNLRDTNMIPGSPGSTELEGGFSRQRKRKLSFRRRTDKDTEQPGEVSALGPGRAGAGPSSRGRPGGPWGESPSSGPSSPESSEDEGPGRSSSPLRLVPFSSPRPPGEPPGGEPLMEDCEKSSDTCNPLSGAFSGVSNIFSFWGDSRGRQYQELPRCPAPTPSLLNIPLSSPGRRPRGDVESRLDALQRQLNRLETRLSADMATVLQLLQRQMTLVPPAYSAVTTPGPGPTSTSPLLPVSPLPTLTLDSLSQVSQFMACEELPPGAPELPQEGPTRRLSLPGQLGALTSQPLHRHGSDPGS

[6] = molecular target: 5-hydroxytryptamine receptor 7 (Homo sapiens, UniProt P34969)
Chain of 5-hydroxytryptamine receptor 7 (P34969 whole entry): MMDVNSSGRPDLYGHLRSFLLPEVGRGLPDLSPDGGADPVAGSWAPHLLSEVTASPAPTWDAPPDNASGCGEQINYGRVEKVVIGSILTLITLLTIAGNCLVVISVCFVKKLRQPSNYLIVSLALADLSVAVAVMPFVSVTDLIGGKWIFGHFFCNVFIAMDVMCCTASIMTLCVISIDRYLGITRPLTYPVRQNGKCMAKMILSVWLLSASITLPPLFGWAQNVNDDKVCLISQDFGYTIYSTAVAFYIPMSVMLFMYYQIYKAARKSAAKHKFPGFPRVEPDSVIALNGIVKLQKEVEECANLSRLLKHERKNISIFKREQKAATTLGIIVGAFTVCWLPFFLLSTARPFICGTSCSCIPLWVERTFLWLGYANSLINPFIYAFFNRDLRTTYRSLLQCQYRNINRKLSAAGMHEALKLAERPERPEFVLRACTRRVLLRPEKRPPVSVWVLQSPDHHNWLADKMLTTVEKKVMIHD

[7] = molecular target: T1, 5-hydroxytryptamine receptor 1A (Homo sapiens, UniProt P08908)
T1 sequence (P08908 whole entry): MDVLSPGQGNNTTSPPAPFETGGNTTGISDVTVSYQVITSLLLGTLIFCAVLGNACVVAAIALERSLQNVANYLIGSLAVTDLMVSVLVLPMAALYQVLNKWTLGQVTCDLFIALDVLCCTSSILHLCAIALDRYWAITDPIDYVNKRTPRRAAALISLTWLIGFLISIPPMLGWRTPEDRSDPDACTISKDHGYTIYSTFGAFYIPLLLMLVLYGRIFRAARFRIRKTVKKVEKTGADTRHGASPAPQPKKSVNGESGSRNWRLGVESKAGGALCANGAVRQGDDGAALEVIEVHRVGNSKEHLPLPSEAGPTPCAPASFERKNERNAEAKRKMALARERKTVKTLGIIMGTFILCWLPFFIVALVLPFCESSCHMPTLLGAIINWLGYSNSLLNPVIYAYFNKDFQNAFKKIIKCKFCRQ

Chain of hERG (KCNH2) (Q12809 whole entry): as the sequence (Q12809 whole entry) above

Row | Compound | inhibition at 1 µM [1] [%] | microsomal CLint at 1 µM [2] [µL/min/mg] | microsomal CLint at 1 µM [3] [µL/min/mg] | IC50 [4] [nM] | IC50 [5] [nM] | Ki [7] [nM] | other results
1 | CSc1ccccc1N1CCN(CCCc2c[nH]c3ccc(C#N)cc23)CC1 | 97.6 | 127 | 208 |  |  |  | 
2 | CSc1ccccc1N1CCN(CCCc2c[nH]c3ccc(F)cc23)CC1 |  |  |  | 1.9 | 390 |  | 
3 | CSc1ccccc1N1CCN(CCCCc2c[nH]c3ccc(F)cc23)CC1 | 82.7 | 27.8 | 156 |  |  |  | 
4 | OC(CCN1CCC(c2ccc(F)cc2-c2ccccc2)CC1)c1c[nH]c2ccc(F)cc12 (centres undefined) |  |  |  |  | 530 |  | 
5 | COc1ccccc1N1CCN(CCCCCC(=O)NC2CCCc3ccccc32)CC1 (centres undefined) |  |  |  |  |  | 6.64 | Ki [6]: 8.6 nM
6 | Fc1ccc(C2=CCN(CCCc3c[nH]c4ccc(F)cc34)CC2)c(-c2ccccc2)c1 | 82.6 | 22.1 | 202 |  |  |  | 
7 | CSc1ccccc1C1CCN(CCCc2c[nH]c3ccc(F)cc23)CC1 | 96.6 | 24.5 | 62.3 |  |  |  | 
8 | CCOc1ccccc1N1CCN(CCCCCn2cnc3sc(C)c(C)c3c2=O)CC1 |  |  |  |  |  | 2.99 | Ki [6]: 1.03 nM
9 | COc1ccc2c(c1)[C@]13CCCC[C@@H]1[C@H](C2)N(C)CC3 [DEXTROMETHORPHAN] |  | 28 |  |  |  |  | 
10 | COc1ccccc1N1CCN(CCCc2c[nH]c3ccc(F)cc23)CC1 |  |  |  | 0.85 | 310 |  | 
11 | CSc1ccccc1N1CCN(CCCCCC(=O)NC2CCCc3ccccc32)CC1 (centres undefined) |  |  |  |  |  | 0.22 | Ki [6]: 52.7 nM
12 | NC(=O)c1ccc2[nH]cc(CCCN3CCC(c4ccc(F)cc4-c4ccccc4)CC3)c2c1 |  |  |  | > 10000 |  | < 0.04 | 
13 | Fc1ccc(C2CCN(CCCc3c[nH]c4ccc(F)cc34)CC2)c(-c2ccccc2)c1 |  | 27.8 |  | 251 | 160 | 5.7 | Ki [6]: 26.8 nM
14 | CCOc1ccccc1N1CCN(CCCc2c[nH]c3ccc(F)cc23)CC1 |  |  |  | 0.85 | 160 |  | 
15 | CCSc1ccccc1N1CCN(CCCc2c[nH]c3ccc(F)cc23)CC1 | 90.1 | 39.5 | 47.6 |  |  |  | 
16 | CSc1ccccc1N1CCN(CCCCCc2c[nH]c3ccc(F)cc23)CC1 | 84.5 | 90.1 | 83.2 |  |  |  | 
